Experimental data taken from patent US8552013B2, “Heterocyclic compounds based on N6-substituted adenine, methods of their preparation, their use for preparation of drugs, cosmetic preparations and growth regulators, pharmaceutical preparations, cosmetic preparations and growth regulators containing these compounds” (USTAV Experimentalni Botaniky Akademie Ved Ceske Republiky, priority 2001, dated 2013).
Where “and” joins values, the source holds several entries; their conditions need not be identical. Equal values may be shown once. Read-outs that look alike come from different tables or passages of the source.

Key:
[1] = tested on: B16-F0 melanoma; assay: Calcein AM cytotoxicity, B16-F0; format: cell-based; conditions: Mus musculus, B16F0, 72 h, read-out: IC 50, B16-F0
From the text: (§1) One of the parameters used, as the basis for cytotoxicity assays, is the metabolic activity of viable cells. For example, a microtiter assay, which uses the Calcein AM, is now widely used to quantitate cell proliferation and cytotoxicity. For instance, this assay is used in drug screening programs and in chemosensitivity testing. Because only metabolically active cells cleave Calcein AM, these assays detect viable cells exclusively. The quantity of reduced Calcein AM corresponds to the number of vital cells in the culture.
(§2) Human T-lymphoblastic leukemia cell line CEM; promyelocytic HL-60 and monocytic U937 leukemias; breast carcinoma cell lines MCF-7, BT549, MDA-MB-231; glioblastoma U87MG cells; cervical carcinoma cells HELA; sarcoma cells U2OS and Saos2; hepatocellular carcinoma HepG2; mouse fibroblasts NIH3T3; mouse immortalized bone marrow macrophages B2.4 and B10A.4; P388D1 and L1210 leukemia; B16 and B16F10 melanomas were used for routine screening of compounds. The cells were maintained in Nunc/Corning 80 cm^2 plastic tissue culture flasks and cultured in cell culture medium (DMEM with 5 g/l glucose, 2 mM glutamine, 100 U/ml penicillin, 100 μg/ml streptomycin, 10% fetal calf serum and sodium bicarbonate).
(§3) The cell suspensions that were prepared and diluted according to the particular cell type and the expected target cell density (2.500-30.000 cells per well based on cell growth characteristics) were added by pipette (80 μl) into 96/well microtiter plates. Inoculates were allowed a pre-incubation period of 24 hours at 37° C. and 5% CO2 for stabilisation. Four-fold dilutions of the intended test concentration were added at time zero in 20 μl aliquots to the microtiter plate wells. Usually, test compound was evaluated at six 4-fold dilutions. In routine testing, the highest well concentration was 266.7 μM, but it can be the matter of change dependent on the agent. All drug concentrations were examined in duplicates. Incubations of cells with the test compounds lasted for 72 hours at 37° C., in 5% CO2 atmosphere and 100% humidity. At the end of incubation period, the cells were assayed by using the Calcein AM. Ten microliters of the stock solution were pipetted into each well and incubated further for 1 hours. Fluorescence (FD) was measured with the Labsystem FIA Reader Fluoroscan Ascent (UK). The tumour cell survival (GI50) was calculated using the following equitation: TCS═(FDdrug exposed well/mean FDcontrol wells)×100%. The GI50 value, the drug concentration lethal to 50% of the tumour cells, was calculated from the obtained dose response curves (FIG. 1).

[2] = tested on: Triticum aestivum cv. Hereward leaf tips; assay: Retention of chlorophyll in excised wheat leaf tips; format: in vivo; conditions: chlorophyll retention at the concentration with highest activity
Method: Seeds of winter wheat, Triticum aestivum cv. Hereward, were washed under running water for 24 hours and then sown on vermiculite soaked with Knop's solution. They were placed in the grown chamber at 25° C. with a 16/8 h light period at 50 μmol.m^−2.s^−1. After 7 days, the first leaf was fully developed and the second leaf had started to grow. A tip section of the first leaf, approximately 35 mm long, was removed from 5 seedlings and trimmed slightly to a combined weight of 100 mg. The basal ends of the five leaf tips were placed in the wells of a microtiter polystyrene plate containing 150 μl of a cytokinin solution each. The entire plate was inserted into a plastic box lined with paper tissues soaked in distilled water to prevent leaf sections from drying out. After a 96 h incubation in the dark at 25° C., the leaves were removed and chlorophyll extracted by heating at 80° C. for 10 min in 5 ml of 80% ethanol (v/v). The sample volume was then restored to 5 ml by the addition of 80% ethanol (v/v). The absorbency of the extract was recorded at 665 nm. In addition, chlorophyll extracts from fresh leaves and leaf tips incubated in deionised water were measured. From the obtained data, the concentration with highest activity was selected for each compound tested. Relative activity of the compound at this concentration was calculated (Tab. 6). The activity obtained for 10^−4 M 6-benzylaminopurine (BAP) was postulated as 100%. The values shown are means of five replicates and the whole experiment was repeated twice. The cytokinins to be tested were dissolved in dimethylsulfoxide (DMSO) and the solution brought up to 10^−3M with distilled water. This stock was further diluted in distilled water to concentrations ranging from 10^−8M to 10^−4M.

[3] = tested on: tobacco callus Nicotiana tabacum L. cv. Wisconsin 38; assay: Cytokinin-dependent tobacco callus growth; format: cell-based; conditions: fresh callus weight at the concentration with highest activity
Method: Cytokinin-dependent tobacco callus Nicotiana tabacum L. cv. Wisconsin 38 was maintained at 25° C. in darkness on modified Murashige-Skoog medium, containing per 1 liter: 4 μmol nicotinic acid, 2.4 μmol pyridoxine hydrochloride, 1.2 μmol thiamine, 26.6 μmol glycine, 1.37 μmol glutamine, 1.8 μmol myo-inositol, 30 g of sucrose, 8 g of agar, 5.37 μmol α-naphtylacetic acid (NAA) and 0.5 μmol benzylaminopurine (BAP). Subcultivation was carried out every three weeks. Fourteen days before the bioassay, the callus tissue was transferred to the media without 6-benzylaminopurine (BAP). Biological activity was determined from the increase in fresh callus weight after four weeks of cultivation. Five replicates were prepared for each cytokinin concentration and the entire test was repeated twice. From the obtained data, the concentration with highest activity was selected for each compound tested. Relative activity of the compound at this concentration was calculated (Tab. 6). The activity obtained for 10^−4 M 6-benzylaminopurine (BAP) was postulated as 100%. The cytokinins to be tested were dissolved in dimethylsulfoxide (DMSO) and the solution brought up to 10^−3M with distilled water. This stock was further diluted in the respective media used for the biotest to concentrations ranging from 10^−8M to 10^−4M.

[4] = tested on: Amaranthus caudatus cotyledon/hypocotyl explants; assay: Amaranthus bioassay, betacyanin content; format: in vivo; conditions: betacyanin content at the concentration with highest activity
Method: Standard Amaranthus bioassay was performed with several modifications. The seeds of Amaranthus caudatus var. atropurpurea were surface-sterilised in 10% N-chlorobenzenesulfonamide (w/v) for 10 min and washed 5 times in deionized water. They were placed in 14 cm Petri dishes containing paper tissues saturated with deionized water. After 72 h of cultivation at 25° C. in darkness, the roots of the seedlings were cut off. The explants, consisting of two cotyledons and hypocotyls, were placed in 5 cm Petri dishes on two layers of filter paper soaked in 1 ml of incubation medium containing 10 μmol NA2HPO4-KH2PO4, pH 6.8, 5 μmol tyrosine and the cytokinin to be tested. There were 20 explants per dish. The procedure was carried out under a green safe light in a darkroom. After a 48 h of incubation at 25° C. in darkness, betacyanin was extracted by freezing the explants in 4 ml […] acetic acid. The concentration of betacyanin was determined by comparing the absorbance at 537 nm and 620 nm as follows: ΔA=[…] nm-A620 nm. From the obtained data, the concentration with highest activity was selected for each compound tested. Relative activity of the compound at this concentration was calculated (Tab. 6). […] The values shown in table 8 are means of five replicates and the entire test was repeated twice. The cytokinins to be tested were dissolved in dimethylsulfoxide (DMSO) and the solution brought up to 10^-3M with distilled water. This stock was further diluted in the respective media used for the biotest to concentrations ranging from 10^-8M to 10^-4M.

[5] = tested on: HOS; assay: Calcein AM cytotoxicity, HOS; format: cell-based
From the text: as §1, §2, §3

[6] = tested on: Rosa hybrida (pot rose cultivar) explants; assay: In vitro and post vitro shoot multiplication and rooting of rose; format: in vivo
Method: The aim of this experiment was to test whether the new compounds are of practical use in tissue culture practice. The multiplication rate was investigated and the post vitro effects on rooting were examined. Rosa hybrida (pot rose cultivar) was cultured in 350 ml vessels with a screw on polycarbonate lid. Each culture vessel contained 100 ml autoclaved medium (120° C., 20 min). The cultures were maintained at 23±2° C. under a 16 h photoperiod at 40 μM m^−2 s^−1 PAR. The basal medium (BMR) contained Murashige and Skoog (1962) macroelements, microelements and vitamins, 95 μM NaFeEDTA, 555 μM myo-inositol, 111 mM sucrose, 1.332 mM glycine, 684 μM L-glutamine and 7 g/l agar. This medium was supplemented with 10 μM BA, mT, oMeOBAP or mMeOBAP (compound no. 14 and 15, respectively). The control medium didn't contain any cytokinin. After a culture period of 8 weeks, the number of induced shoots per explant was determined, as well as root number/explant and total root length/explant. The roots were removed and the explants (shoot clusters) were planted in unfertilised peat. After four weeks of acclimatising in a fog unit, root number and root length was determined.

[7] = tested on: K-562; assay: Calcein AM cytotoxicity, K-562; format: cell-based; conditions: read-out: IC 50, K-562
From the text: as §1
(§4) The cells were maintained in Nunc/Corning 80 cm^2 plastic tissue culture flasks and cultured in cell culture medium (DMEM with 5 g/l glucose, 2 mM glutamine, 100 U/ml penicillin, 100 μg/ml streptomycin, 10% fetal calf serum and sodium bicarbonate).
as §3, with “In routine testing, the highest well concentration was 266.7 μM, but it can be the matter of change dependent on the agent.” left out, “(UK).” for “(UK). The tumour cell survival (GI50) was calculated using the following equitation: TCS═(FDdrug exposed well/mean FDcontrol wells)×100%. The GI50 value, the drug concentration lethal to 50% of the tumour cells, was calculated from the obtained dose response curves (FIG. 1).”

[8] = tested on: breast carcinoma cell line MCF-7; assay: Calcein AM cytotoxicity, MCF7; format: cell-based, human; conditions: read-out: IC 50, MCF7
From the text: as §1, §4
as §3, with “In routine testing, the highest well concentration was 266.7 μM, but it can be the matter of change dependent on the agent.” left out, “(UK).” for “(UK). The tumour cell survival (GI50) was calculated using the following equitation: TCS═(FDdrug exposed well/mean FDcontrol wells)×100%. The GI50 value, the drug concentration lethal to 50% of the tumour cells, was calculated from the obtained dose response curves (FIG. 1).”

[9] = tested on: T-lymphoblastic leukemia cell line CEM; assay: Calcein AM cytotoxicity, CEM; format: cell-based, human
From the text: as §1, §4
as §3, with “In routine testing, the highest well concentration was 266.7 μM, but it can be the matter of change dependent on the agent.” left out, “(UK).” for “(UK). The tumour cell survival (GI50) was calculated using the following equitation: TCS═(FDdrug exposed well/mean FDcontrol wells)×100%. The GI50 value, the drug concentration lethal to 50% of the tumour cells, was calculated from the obtained dose response curves (FIG. 1).”

[10] = tested on: promyelocytic HL-60 leukemia; assay: Calcein AM cytotoxicity, HL60; format: cell-based, human; conditions: read-out: IC 50, HL60
From the text: as §1, §4
as §3, with “In routine testing, the highest well concentration was 266.7 μM, but it can be the matter of change dependent on the agent.” left out, “(UK).” for “(UK). The tumour cell survival (GI50) was calculated using the following equitation: TCS═(FDdrug exposed well/mean FDcontrol wells)×100%. The GI50 value, the drug concentration lethal to 50% of the tumour cells, was calculated from the obtained dose response curves (FIG. 1).”

[11] = Ex vitro, four weeks of acclimatising

Compound | Activity (%) [10^−4 mol · l^−1 BAP = 100%] [2] | Activity (%) [10^−4 mol · l^−1 BAP = 100%] [3] | activity (%) [10^−5 mol · l^−1 BAP = 100%] [4] | IC50 ([5]; Homo sapiens, HOS, 72 h) [µM] | IC50 ([7]; Homo sapiens, K562, 72 h) [µM] | other results
Clc1ccccc1CNc1ncnc2nc[nH]c12 [6-(2-chlorobenzylamino)purine] | 116.5 (±6.5) % | 93 (±4) % | 109 (±8) % | – | – | IC50 [1]: 16.9 µM
COc1ccccc1CNc1ncnc2nc[nH]c12 [6-(2-methoxybenzylamino)purine] | 269 (±12) % | 79 (±5) % | 77 (±5) % | > 167 | – | Root number per plant [6, 11]: 2.5; Total root length per plant [6, 11]: 8.5 cm; Flower number per explant ([6]; In vitro, 10 μM, 8 weeks): 0.29; Number of new shoots per explant ([6]; In vitro, 10 μM, 8 weeks): 1.0; Root number per explant ([6]; In vitro, 10 μM, 8 weeks): 0.0; Total root length per explant ([6]; In vitro, 10 μM, 8 weeks): 0.0 cm
Clc1cccc(CNc2ncnc3nc[nH]c23)c1 [6-(3-chlorobenzylamino)purine] | 82 (±2) % | 94 (±6) % | 96 (±5) % | > 167 | > 167 | –
Clc1ccc(CNc2ncnc3nc[nH]c23)cc1 [6-(4-chlorobenzylamino)purine] | 64.5 (±13.5) % | 64 (±8) % | 35 (±7) % | > 167 | > 167 | IC50 ([8]; Homo sapiens, MCF7, 72 h): > 167 µM; IC50 ([9]; Homo sapiens, 72 h): > 167 µM; IC50 ([10]; Homo sapiens, HL-60, 72 h): > 167 µM
Fc1ccc(CNc2ncnc3nc[nH]c23)cc1 [6-(4-fluorobenzylamino)purine] | 95.5 (±3.5) % | 122 (±12) % | 44 (±4) % | > 167 | – | –
CC(C)=CCNc1ncnc2nc[nH]c12 [IP, isopentenyladenine, reference compound] | – | – | – | – | – | IC50 ([5]; 72 hours): > 167 µM; IC50 ([7]; 72 hours): 147 µM and 162 µM; IC50 ([8]; 72 hours): > 167 µM; IC50 ([9]; 72 hours): 92.2 µM; IC50 ([10]; 72 hours): > 167 µM
c1coc(CNc2ncnc3[nH]cnc23)c1 [Kinetin, reference compound] | – | – | – | > 167 | > 167 | IC50 ([7]; Homo sapiens, K562, 72 hours): 164 µM; IC50 ([8]; Homo sapiens, MCF7, 72 h): > 167 µM; IC50 ([9]; Homo sapiens, 72 hours): 155 µM
C/C(=C/CNc1ncnc2nc[nH]c12)CO [cis Z, reference compound] | – | – | – | – | – | IC50 ([5]; 72 hours): > 167 µM; IC50 ([8]; 72 hours): > 167 µM; IC50 ([9]; 72 hours): > 167 µM; IC50 ([10]; 72 hours): > 167 µM
